Laboratory results published in paper doi:10.1101/2021.07.01.450682v1 (biorxiv, 2021).
Blank lines part the entries; values can stand above or below the molecule they belong to.

Legend:
[1] = target: T1, PfLPL3 (lysophospholipase 3; recombinant hydrolase domain) (Plasmodium falciparum, UniProt Q8IK68); assay: coupled fluorescent lysophospholipase assay; type: biochemical; settings: 16:0 LPC substrate; 50 mM Tris pH 8.0, 5 mM CaCl2; 20 μg enzyme in 200 μl
T1 sequence (Q8IK68 41-338): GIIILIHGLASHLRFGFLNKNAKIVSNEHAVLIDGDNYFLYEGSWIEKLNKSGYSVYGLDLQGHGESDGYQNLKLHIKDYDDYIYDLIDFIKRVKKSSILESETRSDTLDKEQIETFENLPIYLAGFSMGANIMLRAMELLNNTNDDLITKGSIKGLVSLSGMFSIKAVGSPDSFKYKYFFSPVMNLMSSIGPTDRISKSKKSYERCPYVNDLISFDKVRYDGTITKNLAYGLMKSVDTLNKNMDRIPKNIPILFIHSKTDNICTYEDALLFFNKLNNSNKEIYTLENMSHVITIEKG

purified protein = substrate: CCCCCCCCCCCCCCCC(=O)OC[C@@H](O)COP(=O)([O-])OCC[N+](C)(C)C; assay: purified protein; settings: 50 mM Tris pH 8.0, 5 mM CaCl2, 20 μg enzyme

- IC50 [1]: 1260 nM
Molecule: O=C(CCc1ccccc1)c1ccccc1OCC(O)CN1CCCCC1 (stereo not drawn) [PCB6, MMV009015]

- IC50 [1]: 920 nM
Molecule: CCOc1cc(Br)c(C(C)NC(=O)c2cccc(OC)c2)cc1OCC (stereo not drawn) [PCB7, MMV665796]

B1: PfLPL3 (lysophospholipase 3; recombinant hydrolase domain) (Plasmodium falciparum 3D7) (protein)
chain: T1 sequence (Q8IK68 41-338)
- Km (purified protein): 49.25 µM
